How the values were obtained:
[1] = target: EGFR wt. (Homo sapiens (Human), UniProt P00533); experiment: HTRF enzyme assay, wild-type EGFR; assay type: biochemical; conditions: recombinant enzyme
Description: (§1) The measurement of an activity on wild-type and EGFR mutation enzyme of the compound of the present invention was experimented by utilizing the HTRF system sold by Cisbio, as follow.
(§2) The composition of the assay buffer used in the activity measurement was 50 mM Tris-HCl pH 7.5, 100 mM NaCl, 7.5 mM MgCl2, 3 mM KCl, 0.01% Tween 20, 0.1% BSA, 1 mM DTT. The enzymatic reaction was carried out hereto by using the peptide substrate labeled with ATP of […] concentration and biotin of […] concentration. The analysis of an EGFR activity inhibitory effect of the compound was carried out in accordance with the analysis reaction recipe below.
(§3) Component 1: […] of EGFR wild-type or mutation enzyme
(§4) Component 2: […] of compound solution
(§5) Component 3: […] of peptide labeled with ATP and biotin
(§6) The enzymatic reaction was initiated by mixing Component 1 and Component 2 first, and then, adding component 3. After the reaction for 2 hours at 37° C., […] of a measurement solution consisting of streptavidin-XL665 provided by Cisbio and anti-phosphotyrosine antibody labeled with europium was added to the enzymatic reaction solution and reacted for 1 hour at ambient temperature. […] The measurement values measured at the seven concentrations of the compound were analyzed by using the Prism program (version 5.01, Graphpad Software, Inc.), and IC50 value of the compound was calculated, which is an inhibitory ability indicator.

[2] = target: EGFR del19 (Homo sapiens (Human), UniProt P00533, DEL746-750); experiment: HTRF enzyme assay, EGFR del19; assay type: biochemical; conditions: recombinant enzyme
Chain of EGFR del19 (P00533 other isoform, or with tags, fused parts or gaps del 1-668/del 746-750 limits assumed): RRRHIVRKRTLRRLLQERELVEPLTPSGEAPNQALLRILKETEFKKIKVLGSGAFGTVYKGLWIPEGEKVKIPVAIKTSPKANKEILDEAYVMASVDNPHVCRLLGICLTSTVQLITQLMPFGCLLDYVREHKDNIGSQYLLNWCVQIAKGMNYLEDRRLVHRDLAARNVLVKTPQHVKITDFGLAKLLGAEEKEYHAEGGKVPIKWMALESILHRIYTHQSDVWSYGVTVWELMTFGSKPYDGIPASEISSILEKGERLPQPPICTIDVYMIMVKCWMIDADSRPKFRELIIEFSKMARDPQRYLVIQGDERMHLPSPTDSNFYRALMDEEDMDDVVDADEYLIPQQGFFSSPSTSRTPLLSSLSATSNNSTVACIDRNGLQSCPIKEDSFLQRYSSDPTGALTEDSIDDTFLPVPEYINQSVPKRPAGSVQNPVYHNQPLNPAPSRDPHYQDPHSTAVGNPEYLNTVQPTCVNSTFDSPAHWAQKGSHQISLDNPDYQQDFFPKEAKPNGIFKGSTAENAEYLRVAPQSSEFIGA
Description: as §1, §2, §3, §4, §5, §6

[3] = target: EGFR del19/T790M (Homo sapiens (Human), UniProt P00533, DEL746-750/T790M); experiment: HTRF enzyme assay, EGFR del19/T790M; assay type: biochemical; conditions: recombinant enzyme
Chain of EGFR del19/T790M (P00533 other isoform, or with tags, fused parts or gaps T790M/del 1-668/del 746-750 limits assumed): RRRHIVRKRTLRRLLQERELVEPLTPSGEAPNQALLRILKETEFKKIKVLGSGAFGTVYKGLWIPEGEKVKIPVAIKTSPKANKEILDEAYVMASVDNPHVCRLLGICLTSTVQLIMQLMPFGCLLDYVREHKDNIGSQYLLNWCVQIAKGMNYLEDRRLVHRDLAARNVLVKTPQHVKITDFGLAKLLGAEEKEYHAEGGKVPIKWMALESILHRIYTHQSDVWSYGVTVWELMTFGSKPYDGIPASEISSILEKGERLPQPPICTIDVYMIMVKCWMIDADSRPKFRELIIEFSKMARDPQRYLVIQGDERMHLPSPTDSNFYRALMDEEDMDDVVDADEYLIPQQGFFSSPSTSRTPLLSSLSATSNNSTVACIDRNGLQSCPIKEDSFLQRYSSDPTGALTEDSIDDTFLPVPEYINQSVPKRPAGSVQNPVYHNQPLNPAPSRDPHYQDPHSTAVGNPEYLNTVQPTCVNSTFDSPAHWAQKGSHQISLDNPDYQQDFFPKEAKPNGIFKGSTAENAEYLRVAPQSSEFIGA
Description: as §1, §2, §3, §4, §5, §6

[4] = target: EGFR del19/T790M/C797S (Homo sapiens, UniProt P00533, C797S/DEL746-750/T790M); experiment: HTRF enzyme assay, EGFR del19/T790M/C797S; assay type: biochemical; conditions: HTRF, recombinant enzyme; read-out: EGFR del19/T790M/C797S IC50
Chain of EGFR del19/T790M/C797S (P00533 with tags, fused parts or gaps C797S/DEL746-750/T790M limits assumed): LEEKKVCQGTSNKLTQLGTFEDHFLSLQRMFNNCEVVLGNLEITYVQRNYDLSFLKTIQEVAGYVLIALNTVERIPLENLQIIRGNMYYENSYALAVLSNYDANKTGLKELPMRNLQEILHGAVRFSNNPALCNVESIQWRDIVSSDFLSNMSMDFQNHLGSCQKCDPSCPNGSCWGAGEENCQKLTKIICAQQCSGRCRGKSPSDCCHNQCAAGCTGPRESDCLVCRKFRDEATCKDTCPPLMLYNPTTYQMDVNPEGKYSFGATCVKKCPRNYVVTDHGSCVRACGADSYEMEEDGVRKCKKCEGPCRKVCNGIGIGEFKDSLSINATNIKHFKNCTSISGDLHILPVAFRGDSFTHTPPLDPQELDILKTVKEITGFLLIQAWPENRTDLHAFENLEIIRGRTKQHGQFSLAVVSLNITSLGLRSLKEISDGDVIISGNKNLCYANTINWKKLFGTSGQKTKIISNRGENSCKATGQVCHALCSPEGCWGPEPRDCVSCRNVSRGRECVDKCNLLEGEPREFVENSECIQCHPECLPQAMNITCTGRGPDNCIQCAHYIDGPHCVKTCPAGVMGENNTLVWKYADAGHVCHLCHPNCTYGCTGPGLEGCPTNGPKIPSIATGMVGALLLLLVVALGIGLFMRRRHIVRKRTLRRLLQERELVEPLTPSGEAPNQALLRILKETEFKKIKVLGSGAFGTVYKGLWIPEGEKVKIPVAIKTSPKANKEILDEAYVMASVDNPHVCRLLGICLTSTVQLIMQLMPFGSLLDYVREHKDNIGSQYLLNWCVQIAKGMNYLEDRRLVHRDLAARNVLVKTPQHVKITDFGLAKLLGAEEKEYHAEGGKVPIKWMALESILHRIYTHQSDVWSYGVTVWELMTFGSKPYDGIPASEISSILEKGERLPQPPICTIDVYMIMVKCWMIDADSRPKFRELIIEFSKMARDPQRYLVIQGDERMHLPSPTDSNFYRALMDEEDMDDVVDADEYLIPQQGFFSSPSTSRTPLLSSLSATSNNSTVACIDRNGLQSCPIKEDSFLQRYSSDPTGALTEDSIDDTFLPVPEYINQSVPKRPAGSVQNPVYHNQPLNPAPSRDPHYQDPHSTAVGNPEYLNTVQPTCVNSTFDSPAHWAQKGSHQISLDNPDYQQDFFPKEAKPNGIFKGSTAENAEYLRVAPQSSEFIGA
Description: as §1, §2, §3, §4, §5, §6

[5] = system: Ba/F3 EGFR wt. cell line; experiment: CellTiter-Glo cell viability, Ba/F3 EGFR wild-type; assay type: cell-based; conditions: 72 hours
Description: (§7) The measurement of an activity on wild-type and mutation Ba/F3 EGFR cell line of the compound of the present invention was experimented by utilizing the CellTiter-Glo system sold by Promega, as follow. The CellTiter-Glo assay is a method for measuring the ATP present in cells in cell culture conditions to determine the cell viability.
(§8) The analysis of an EGFR inhibitory ability effect of the compound was carried out in accordance with the analysis reaction recipe below.
(§9) After the reaction of 72 hours, the plate treated with the compound was allowed to stand for 30 minutes at ambient temperature, and then, was further treated with 100 μl of the reagent, and was shaked for 10 minutes at ambient temperature. […] The measurement values measured at the eight concentrations of the compound were analyzed by using the Prism program (version 5.01, Graphpad Software, Inc.), and IC50 value of the compound was calculated, which is an inhibitory ability indicator.

[6] = system: Ba/F3 EGFR del19 cell line; experiment: CellTiter-Glo cell viability, Ba/F3 EGFR del19; assay type: cell-based; conditions: 72 hours
Description: as §7, §8, §9

[7] = system: Ba/F3 EGFR del19/T790M cell line; experiment: CellTiter-Glo cell viability, Ba/F3 EGFR del19/T790M; assay type: cell-based; conditions: CellTiter-Glo, 72 hours, read-out: Ba/F3 EGFR del19/T790M IC50
Description: as §7, §8
(§10) After the reaction of 72 hours, the plate treated with the compound was allowed to stand for 30 minutes at ambient temperature, and then, was further treated with 100 μl of the reagent, and was shaked for 10 minutes at ambient temperature.

[8] = system: Ba/F3 EGFR del19/T790M/C797S cell line; experiment: CellTiter-Glo cell viability, Ba/F3 EGFR del19/T790M/C797S; assay type: cell-based; conditions: CellTiter-Glo, 72 hours, read-out: Ba/F3 EGFR del19/T790M/C797S IC50
Description: as §7, §8, §10

Chain of EGFR wt. (P00533 25-1210): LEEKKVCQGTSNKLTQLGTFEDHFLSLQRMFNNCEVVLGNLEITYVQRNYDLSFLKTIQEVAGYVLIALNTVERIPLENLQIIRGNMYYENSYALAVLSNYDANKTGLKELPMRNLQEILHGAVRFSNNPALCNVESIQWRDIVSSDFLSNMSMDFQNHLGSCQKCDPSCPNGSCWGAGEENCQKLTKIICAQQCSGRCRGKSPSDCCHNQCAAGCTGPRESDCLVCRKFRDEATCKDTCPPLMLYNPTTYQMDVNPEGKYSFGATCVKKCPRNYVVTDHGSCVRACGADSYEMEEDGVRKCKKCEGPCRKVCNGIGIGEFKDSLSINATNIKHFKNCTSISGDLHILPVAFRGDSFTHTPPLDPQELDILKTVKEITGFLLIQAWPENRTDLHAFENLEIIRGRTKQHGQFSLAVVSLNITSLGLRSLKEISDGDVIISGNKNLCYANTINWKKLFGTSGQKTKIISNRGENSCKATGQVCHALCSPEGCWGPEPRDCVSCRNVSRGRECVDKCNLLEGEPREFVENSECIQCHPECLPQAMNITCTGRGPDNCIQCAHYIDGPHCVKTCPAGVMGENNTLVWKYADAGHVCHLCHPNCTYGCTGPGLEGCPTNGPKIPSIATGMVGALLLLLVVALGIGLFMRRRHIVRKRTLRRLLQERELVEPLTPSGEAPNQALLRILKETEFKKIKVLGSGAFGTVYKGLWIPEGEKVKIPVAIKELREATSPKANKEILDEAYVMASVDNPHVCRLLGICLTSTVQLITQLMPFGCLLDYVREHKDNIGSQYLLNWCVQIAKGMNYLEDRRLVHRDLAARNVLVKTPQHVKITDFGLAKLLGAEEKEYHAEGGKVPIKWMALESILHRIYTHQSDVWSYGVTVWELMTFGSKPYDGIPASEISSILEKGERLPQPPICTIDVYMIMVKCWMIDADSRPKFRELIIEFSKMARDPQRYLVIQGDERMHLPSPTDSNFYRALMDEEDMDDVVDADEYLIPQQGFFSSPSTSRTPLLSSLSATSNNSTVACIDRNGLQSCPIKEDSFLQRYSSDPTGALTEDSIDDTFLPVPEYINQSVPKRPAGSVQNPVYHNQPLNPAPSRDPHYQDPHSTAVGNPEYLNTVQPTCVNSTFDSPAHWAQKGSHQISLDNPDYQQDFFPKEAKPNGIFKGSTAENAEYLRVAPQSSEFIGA

| SMILES | IC50 [1] | IC50 [2] | IC50 [3] | IC50 [4] | IC50 [5] | IC50 [6] | IC50 [7] | IC50 [8] |
| --- | --- | --- | --- | --- | --- | --- | --- | --- |
| COc1cc(C2CCN(C3CCN(CCO)CC3)CC2)ccc1Nc1ncc(Cl)c(Nc2ccccc2NS(C)(=O)=O)n1 [Example 14, N-(2-((5-chloro-2-((4-(1′-(2-hydroxyethyl)-[1,4′-bipiperidin]-4-yl)-2-methoxyphenyl)amino)pyrimidin-4-yl)amino)phenyl)methanesulfonamide] | 1400 nM | 6 nM | 95 nM | 34 nM | 750 nM | 500 nM | 540 nM | 110 nM |
| COc1cc(C2CCN(C3CCNCC3)CC2)ccc1Nc1ncc(Cl)c(Nc2ccccc2NS(C)(=O)=O)n1 [Example 16, N-(2-((2-((4-([1,4′-bipiperidin]-4-yl)-2-methoxyphenyl)amino)-5-chloropyrimidin-4-yl)amino)phenyl)methanesulfonamide] | 5400 nM | 44 nM | 340 nM | 23 nM | > 10000 nM | > 10000 nM | 2300 nM | > 10000 nM |
| COc1cc(C2CCN(C3CCN(C)CC3)CC2)ccc1Nc1ncc(Cl)c(Nc2ccccc2NS(C)(=O)=O)n1 [Example 17, N-(2-((5-chloro-2-((2-methoxy-4-(1′-methyl-[1,4′-bipiperidin]-4-yl)phenyl)amino)pyrimidin-4-yl)amino)phenyl)methanesulfonamide] | 600 nM | 4 nM | 78 nM | 12 nM | 2100 nM | 2200 nM | 1700 nM | 680 nM |
| COc1cc(C2CCN(C3CCN(C(C)=O)CC3)CC2)ccc1Nc1ncc(Cl)c(Nc2ccccc2NS(C)(=O)=O)n1 [Example 18, N-(2-((2-((4-(1′-acetyl-[1,4′-bipiperidin]-4-yl)-2-methoxyphenyl)amino)-5-chloropyrimidin-4-yl)amino)phenyl)methanesulfonamide] | 970 nM | 13 nM | 92 nM | 30 nM | 4400 nM | 2700 nM | 1400 nM | 2000 nM |
| COc1cc(N2CCC(N3CCN(C(C)=O)CC3)CC2)ccc1Nc1ncc(Cl)c(Nc2ccccc2NS(C)(=O)=O)n1 [Example 19, N-(2-((2-((4-(4-(4-acetylpiperazin-1-yl)piperidin-1-yl)-2-methoxyphenyl)amino)-5-chloropyrimidin-4-yl)amino)phenyl)methanesulfonamide] | 700 nM | 0.7 nM | 69 nM | 42 nM | 3100 nM | 1100 nM | 660 nM | 970 nM |
| COc1cc(N2CCC(N3CCNCC3)CC2)ccc1Nc1ncc(Cl)c(Nc2ccccc2NS(C)(=O)=O)n1 [Example 21, N-(2-((5-chloro-2-((2-methoxy-4-(4-(piperazin-1-yl)piperidin-1-yl)phenyl)amino)pyrimidin-4-yl)amino)phenyl)methanesulfonamide] | 160 nM | 0.1 nM | 14 nM | 5 nM | 2200 nM | 3600 nM | 550 nM | 1700 nM |
| COc1cc(N2CCN(C3CCN(C)CC3)CC2)ccc1Nc1ncc(Cl)c(Nc2ccccc2NS(C)(=O)=O)n1 [Example 25, N-(2-((5-chloro-2-((2-methoxy-4-(4-(1-methylpiperidin-4-yl)piperazin-1-yl)phenyl)amino)pyrimidin-4-yl)amino)phenyl)methanesulfonamide] | 300 nM | 0.2 nM | 18 nM | 9 nM | 340 nM | 210 nM | 780 nM | 27 nM |
| COc1cc(N2CCN(C)CC2)ccc1Nc1ncc(Cl)c(Nc2ccccc2NS(C)(=O)=O)n1 [Example 28, N-(2-((5-chloro-2-((2-methoxy-4-(4-methylpiperazin-1-yl)phenyl)amino)pyrimidin-4-yl)amino)phenyl)methanesulfonamide] | 640 nM | 0.9 nM | 27 nM | 9 nM | 1400 nM | 1400 nM | 690 nM | 1700 nM |
| COc1cc(N2CCNCC2)ccc1Nc1ncc(Cl)c(Nc2ccccc2NS(N)(=O)=O)n1 [Example 29, 4-(4-((5-chloro-4-((2-(sulfamoylamino)phenyl)amino)pyrimidin-2-yl)amino)-3-methoxyphenyl)piperazine] | 1200 nM | 5 nM | 4 nM | 7 nM | 2800 nM | 1900 nM | 2100 nM | 2900 nM |
| COc1cc(N2CCNCC2)ccc1Nc1ncc(Br)c(Nc2ccccc2NS(N)(=O)=O)n1 [Example 30, 4-(4-((5-bromo-4-((2-(sulfamoylamino)phenyl)amino)pyrimidin-2-yl)amino)-3-methoxyphenyl)piperazine] | 1800 nM | 24 nM | 34 nM | 3 nM | 5400 nM | 680 nM | 850 nM | 2700 nM |
| COc1cc(N2CCOCC2)ccc1Nc1ncc(Cl)c(Nc2ccccc2NS(C)(=O)=O)n1 [Example 32, N-(2-((5-chloro-2-((2-methoxy-4-morpholinophenyl)amino)pyrimidin-4-yl)amino)phenyl)methanesulfonamide] | 1300 nM | 4 nM | 160 nM | 14 nM | 8000 nM | 1900 nM | 1300 nM | 3300 nM |
